Publication PMC10979453, “Antioxidant and Angiotensin-Converting Enzyme Inhibitory Activity of Faba Bean-Derived Peptides After In Vitro Gastrointestinal Digestion: Insight into Their Mechanism of Action” (Journal of Agricultural and Food Chemistry, 2024)
Like-named read-outs stand apart in the source and are kept apart here. Peptide text beside a SMILES is read from it.

Key:
[1] = biological target: T1, Angiotensin-converting enzyme (ACE) from rabbit lung (Oryctolagus cuniculus, UniProt P12822); assay: in vitro ACE inhibitory activity (HHL substrate); type: biochemical; settings: for IC50: mean ± SD; for inhibition at 10000 µM: peptide concentration 10 mM
T1 construct: Angiotensin-converting enzyme (ACE) from rabbit lung (A6778); purchased Sigma-Aldrich A6778; host or cells: rabbit lung (tissue-derived enzyme)
T1 sequence (P12822 34-1310): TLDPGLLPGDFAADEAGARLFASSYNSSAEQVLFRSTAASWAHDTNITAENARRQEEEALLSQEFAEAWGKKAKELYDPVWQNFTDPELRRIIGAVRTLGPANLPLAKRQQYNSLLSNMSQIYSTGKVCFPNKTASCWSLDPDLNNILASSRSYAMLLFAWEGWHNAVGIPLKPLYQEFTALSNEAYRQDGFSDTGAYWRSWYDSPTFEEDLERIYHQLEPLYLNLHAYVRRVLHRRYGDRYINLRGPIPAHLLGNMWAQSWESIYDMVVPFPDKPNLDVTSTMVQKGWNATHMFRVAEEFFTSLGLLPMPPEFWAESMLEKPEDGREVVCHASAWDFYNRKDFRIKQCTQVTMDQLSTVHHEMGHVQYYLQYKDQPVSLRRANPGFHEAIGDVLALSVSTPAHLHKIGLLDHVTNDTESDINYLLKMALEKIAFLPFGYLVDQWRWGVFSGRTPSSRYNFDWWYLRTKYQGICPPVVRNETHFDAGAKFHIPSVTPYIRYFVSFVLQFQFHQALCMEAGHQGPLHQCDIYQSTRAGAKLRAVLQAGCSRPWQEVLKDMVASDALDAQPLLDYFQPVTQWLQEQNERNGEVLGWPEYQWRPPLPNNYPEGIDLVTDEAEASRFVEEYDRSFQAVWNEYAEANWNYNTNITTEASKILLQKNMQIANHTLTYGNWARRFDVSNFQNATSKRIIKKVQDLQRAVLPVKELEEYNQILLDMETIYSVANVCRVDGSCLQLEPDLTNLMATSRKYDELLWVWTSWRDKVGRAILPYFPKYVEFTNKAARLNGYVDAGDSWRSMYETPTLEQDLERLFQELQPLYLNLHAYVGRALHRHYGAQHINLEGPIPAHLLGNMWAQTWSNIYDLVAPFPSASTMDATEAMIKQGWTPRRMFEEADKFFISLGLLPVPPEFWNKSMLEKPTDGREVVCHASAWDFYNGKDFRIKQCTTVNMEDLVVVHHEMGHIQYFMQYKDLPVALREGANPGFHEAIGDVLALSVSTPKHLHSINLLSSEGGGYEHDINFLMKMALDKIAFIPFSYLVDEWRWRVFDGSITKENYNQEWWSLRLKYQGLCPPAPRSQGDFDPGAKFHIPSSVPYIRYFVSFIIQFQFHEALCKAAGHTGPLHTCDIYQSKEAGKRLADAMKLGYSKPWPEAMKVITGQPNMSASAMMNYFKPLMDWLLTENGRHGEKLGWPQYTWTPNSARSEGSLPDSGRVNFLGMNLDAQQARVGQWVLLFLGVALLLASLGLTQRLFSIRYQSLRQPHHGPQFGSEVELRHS
Excerpt: Angiotensin-converting enzyme (ACE) from rabbit lung (A6778), N-hippuryl–His–Leu hydrate (HHL) (H1635), and captopril were purchased from Sigma-Aldrich (St. Louis, MO, USA).
ACE from rabbits was used for in vitro testing, since rabbit and human ACE are nearly homologous and their active sites are highly similar.[24]

[2] = biological target: T1, Angiotensin-converting enzyme (ACE) from rabbit lung; assay: ACE inhibition kinetics (Lineweaver-Burk and secondary plots); type: biochemical; settings: HHL 0.5–2 mM, read-out: inhibition constant (Ki)
Protocol: A kinetic study was performed following the procedure of Barbana et al. (2011)[23] to determine the inhibition pattern of four faba bean peptides with ACE inhibition activity (VIPTEPPH, VIPTEPPHA, VVIPTEPPHA, and VVIPTEPPH). The initial rate of reaction was measured with different HHL (0.5–2 mM) and peptides concentrations. Lineweaver–Burk double reciprocal plots were built to identify the inhibition pattern.
The ACE inhibition pattern of VIPTEPPH, VIPTEPPHA, VVIPTEPPHA, and VVIPTEPPH was assessed through kinetic experiments. The initial velocity of reaction was measured at different substrate (0.5–2 mM) and peptide concentrations, and Lineweaver–Burk double reciprocal plots were built to identify the inhibition pattern. […] The inhibitor binding site is, therefore, located outside the enzyme active site. The loss of ACE activity in the presence of peptides can, therefore, be explained by conformational changes caused by peptide binding rather than competition for the active site.
The inhibition constant (Ki) was calculated from secondary plots for each peptide. The secondary plots were constructed by plotting the Lineweaver–Burk curve slope against the peptide concentration. The Ki value was calculated from the negative intercept on the X-axis of the secondary plot. […] These Ki values are nearly identical to the IC50, confirming the noncompetitive inhibition pattern. The minor differences in the IC50 and Ki values can be explained by experimental imprecision.

[3] = free amino acids; cited from earlier work
[4] = ABTS free radical scavenging assay; settings: for ABTS activity, times lower than Trolox: range over the named peptides
Protocol: (§1) For the DPPH, ABTS, and iron chelating assays, the peptides were first screened at a high dose (10 mM). […] The EC50 values were calculated using a four-parameter logistic curve regression, and Trolox was used as a positive control. For the ORAC assay, the results were expressed as μmol of Trolox equivalent per mM of peptides.

[5] = Oxygen Radical Absorption Capacity (ORAC) assay; settings: for ORAC activity per mg of peptides: as given in the text; for ORAC activity, times higher than Trolox: on a molar basis, range over the named peptides
Protocol: 2,2-Diphenyl-1-picrylhydrazyl (DPPH), 2,2′-azinobis(3-ethylbenzothiazoline-6-sulfonic acid) (ABTS), Oxygen Radical Absorption Capacity (ORAC), and the iron chelating assays were performed following the methods of Orona-Tamayo, Valverde, Nieto-Rendón, and Paredes-López (2015),[17] Re, Pellegrini, Proteggente, Pannala, Yang, and Rice-Evans (1999),[18] Tomer, McLeman, Ohmine, Scherer, Murray, and O’Neill (2007),[19] and of Orona-Tamayo et al. (2015),[17] respectively, as described in Martineau-Côté, Achouri, Wanasundara et al. (2022).[16] For the DPPH, ABTS, and iron chelating assays, the peptides were first screened at a high dose (10 mM). Peptides with antioxidant activity were then tested at different concentrations (0.1–10 mM) to evaluate the dose–response effect. The results were expressed as the half-maximal effective concentration (EC50), which was defined as the required peptide concentration, leading to 50% scavenging or chelating activity. The EC50 values were calculated using a four-parameter logistic curve regression, and Trolox was used as a positive control. For the ORAC assay, the results were expressed as μmol of Trolox equivalent per mM of peptides.

[6] = DPPH free radical scavenging assay; settings: mean ± SD; tested at 0.1–10 mM
Protocol: as §1

[7] = read-out: ACE Inhibition (IC50 μM)
[8] = read-out: ACE Inhibition (IC50 μg/mL) (converted)

Row | IC50 [1, 7] [µM] | IC50 [1, 8] [µM] | inhibition at 10000 µM [1] [%] | Ki [2] [µM] | Molecule | ORAC activity [3] [μMol TE eq/mM] | further results
1 | 123 ± 5 | 123 | 100 | 107 | CC[C@H](C)[C@H](NC(=O)[C@@H](N)C(C)C)C(=O)N1CCC[C@H]1C(=O)N[C@H](C(=O)N[C@@H](CCC(=O)O)C(=O)N1CCC[C@H]1C(=O)N1CCC[C@H]1C(=O)N[C@@H](Cc1c[nH]cn1)C(=O)N[C@@H](C)C(=O)O)[C@@H](C)O [VIPTEPPHA] (H-VIPTEPPHA-OH) |  | 
2 | 90 ± 10 | 91.1 | 100 | 87 | CC[C@H](C)[C@H](NC(=O)[C@@H](N)C(C)C)C(=O)N1CCC[C@H]1C(=O)N[C@H](C(=O)N[C@@H](CCC(=O)O)C(=O)N1CCC[C@H]1C(=O)N1CCC[C@H]1C(=O)N[C@@H](Cc1c[nH]cn1)C(=O)O)[C@@H](C)O [VIPTEPPH] (H-VIPTEPPH-OH) |  | 
3 | 50 ± 5 | 50 | 100 | 54 | CC[C@H](C)[C@H](NC(=O)[C@@H](NC(=O)[C@@H](N)C(C)C)C(C)C)C(=O)N1CCC[C@H]1C(=O)N[C@H](C(=O)N[C@@H](CCC(=O)O)C(=O)N1CCC[C@H]1C(=O)N1CCC[C@H]1C(=O)N[C@@H](Cc1c[nH]cn1)C(=O)N[C@@H](C)C(=O)O)[C@@H](C)O [VVIPTEPPHA] (H-VVIPTEPPHA-OH) |  | 
4 | 43 ± 1 | 43.5 | 100 | 45 | CC[C@H](C)[C@H](NC(=O)[C@@H](NC(=O)[C@@H](N)C(C)C)C(C)C)C(=O)N1CCC[C@H]1C(=O)N[C@H](C(=O)N[C@@H](CCC(=O)O)C(=O)N1CCC[C@H]1C(=O)N1CCC[C@H]1C(=O)N[C@@H](Cc1c[nH]cn1)C(=O)O)[C@@H](C)O [VVIPTEPPH] (H-VVIPTEPPH-OH) |  | 
5 |  |  |  |  | N[C@@H](Cc1c[nH]cn1)C(=O)O [histidine] | 78 | 
6 |  |  |  |  | N[C@@H](Cc1c[nH]c2ccccc12)C(=O)O [tryptophan] | 2790 | 
7 |  |  |  |  | N[C@@H](Cc1ccc(O)cc1)C(=O)O [tyrosine] | 1020 | 
8 |  |  |  |  | TETWNPNHPE [synthesized faba bean-derived peptide, parent protein legumin B] |  | ABTS activity, times lower than Trolox [4]: 8 to 66 times; ORAC activity ([5]; as given in the abstract): 2.84 ± 0.08 mM Trolox equivalent/mM; ORAC activity per mg of peptides [5]: 2.3 μMol Trolox eq/mg; ORAC activity, times higher than Trolox [5]: 2.5 to 2.8 times
9 |  |  |  |  | TETWNPNHPEL [synthesized faba bean-derived peptide, parent protein legumin B] |  | EC50 [6]: 2100 ± 100 µM; EC50 ([4]; mean ± SD, tested at 0.1–10 mM): 500 ± 200 µM; ABTS activity, times lower than Trolox [4]: 8 to 66 times; ORAC activity per mg of peptides [5]: 1.9 μMol Trolox eq/mg; ORAC activity, times higher than Trolox [5]: 2.5 to 2.8 times
